Results published in ChEMBL document CHEMBL5055650, “4-Acyl Pyrrole Capped HDAC Inhibitors: A New Scaffold for Hybrid Inhibitors of BET Proteins and Histone Deacetylases as Antileukemia Drug Leads” (J Med Chem, 2021).
Calls of active or inactive are those of the source. The rule behind the calls is not given here.

Key:
[1] = biological target: T1, Bromodomain-containing protein 3 (Homo sapiens, UniProt Q15059); assay: Binding affinity to human BRD3 domain 1 assessed as dissociation constant by isothermal titration calorimetry assay
T1 sequence (Q15059 whole entry, the tested form may be a part): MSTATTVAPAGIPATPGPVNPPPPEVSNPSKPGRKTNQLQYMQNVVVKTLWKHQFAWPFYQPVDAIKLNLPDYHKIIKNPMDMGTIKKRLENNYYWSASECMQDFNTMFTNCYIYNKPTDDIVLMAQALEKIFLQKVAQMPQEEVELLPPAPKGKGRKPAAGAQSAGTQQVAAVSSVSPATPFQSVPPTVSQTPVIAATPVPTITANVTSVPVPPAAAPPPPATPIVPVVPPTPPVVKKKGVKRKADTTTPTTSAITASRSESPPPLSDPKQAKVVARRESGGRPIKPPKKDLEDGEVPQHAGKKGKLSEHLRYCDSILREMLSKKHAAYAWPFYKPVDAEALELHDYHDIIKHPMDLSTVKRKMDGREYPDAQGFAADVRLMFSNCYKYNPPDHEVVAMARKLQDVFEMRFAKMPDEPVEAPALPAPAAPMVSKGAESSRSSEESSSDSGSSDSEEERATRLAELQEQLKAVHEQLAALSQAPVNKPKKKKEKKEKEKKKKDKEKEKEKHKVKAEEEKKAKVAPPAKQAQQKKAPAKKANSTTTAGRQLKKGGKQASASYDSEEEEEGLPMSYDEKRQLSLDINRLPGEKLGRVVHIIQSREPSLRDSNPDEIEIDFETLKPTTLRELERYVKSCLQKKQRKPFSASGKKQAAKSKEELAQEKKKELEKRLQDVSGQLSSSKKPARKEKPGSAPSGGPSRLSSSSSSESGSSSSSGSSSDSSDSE

[2] = biological target: T2, Bromodomain-containing protein 2 (Homo sapiens, UniProt P25440); assay: Binding affinity to human BRD2 domain 2 assessed as dissociation constant by isothermal titration calorimetry assay
T2 sequence (P25440 whole entry, the tested form may be a part): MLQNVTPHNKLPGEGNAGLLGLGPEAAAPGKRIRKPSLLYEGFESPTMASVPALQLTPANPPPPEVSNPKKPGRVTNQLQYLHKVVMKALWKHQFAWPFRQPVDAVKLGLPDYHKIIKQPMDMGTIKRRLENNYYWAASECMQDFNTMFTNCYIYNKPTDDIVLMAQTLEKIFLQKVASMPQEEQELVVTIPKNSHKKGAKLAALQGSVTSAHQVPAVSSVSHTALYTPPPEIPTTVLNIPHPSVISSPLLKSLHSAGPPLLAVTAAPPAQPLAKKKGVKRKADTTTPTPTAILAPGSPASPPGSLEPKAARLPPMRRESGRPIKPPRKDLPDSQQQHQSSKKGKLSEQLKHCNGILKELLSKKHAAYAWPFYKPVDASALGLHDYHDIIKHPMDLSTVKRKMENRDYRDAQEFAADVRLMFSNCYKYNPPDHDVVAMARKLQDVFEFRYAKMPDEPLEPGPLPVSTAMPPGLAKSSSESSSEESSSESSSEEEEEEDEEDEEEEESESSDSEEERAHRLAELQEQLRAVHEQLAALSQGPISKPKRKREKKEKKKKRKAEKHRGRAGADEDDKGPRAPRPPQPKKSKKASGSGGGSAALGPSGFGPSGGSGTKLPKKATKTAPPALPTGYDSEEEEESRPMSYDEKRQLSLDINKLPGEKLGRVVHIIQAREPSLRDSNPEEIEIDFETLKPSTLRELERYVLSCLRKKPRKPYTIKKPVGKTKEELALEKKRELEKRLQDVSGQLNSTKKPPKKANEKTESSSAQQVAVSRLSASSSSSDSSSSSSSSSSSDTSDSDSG

[3] = biological target: T2, Bromodomain-containing protein 2; assay: Binding affinity to human BRD2 domain 1 assessed as dissociation constant by isothermal titration calorimetry assay
HL-60 [4] = assay: Cytotoxicity against human HL-60 cells assessed as cell viability at 5 uM by CellTiter-Glo luminescent assay; type: functional; settings: read-out: Activity
TALL-1 = assay: Cytotoxicity against human TALL-1 cells assessed as cell viability at 5 uM by CellTiter-Glo luminescent assay; type: functional; settings: read-out: Activity
MOLT-4 = assay: Cytotoxicity against human MOLT-4 cells assessed as cell viability at 5 uM by CellTiter-Glo luminescent assay; type: functional; settings: read-out: Activity
[5] = biological target: Bromodomain-containing protein 4 (Homo sapiens, UniProt O60885); assay: Binding affinity to human BRD4 domain 1 (unknown origin) assessed as dissociation constant by isothermal titration calorimetry assay; settings: read-out: Kd
Histone deacetylase 1 = Histone deacetylase 1 (Homo sapiens, UniProt Q13547); assay: Inhibition of human recombinant HDAC1 assessed as fluorescence using fluorogenic substrate ZMAL incubated for 90 min by microplate reader
Histone deacetylase 1, sequence (Q13547 whole entry, the tested form may be a part): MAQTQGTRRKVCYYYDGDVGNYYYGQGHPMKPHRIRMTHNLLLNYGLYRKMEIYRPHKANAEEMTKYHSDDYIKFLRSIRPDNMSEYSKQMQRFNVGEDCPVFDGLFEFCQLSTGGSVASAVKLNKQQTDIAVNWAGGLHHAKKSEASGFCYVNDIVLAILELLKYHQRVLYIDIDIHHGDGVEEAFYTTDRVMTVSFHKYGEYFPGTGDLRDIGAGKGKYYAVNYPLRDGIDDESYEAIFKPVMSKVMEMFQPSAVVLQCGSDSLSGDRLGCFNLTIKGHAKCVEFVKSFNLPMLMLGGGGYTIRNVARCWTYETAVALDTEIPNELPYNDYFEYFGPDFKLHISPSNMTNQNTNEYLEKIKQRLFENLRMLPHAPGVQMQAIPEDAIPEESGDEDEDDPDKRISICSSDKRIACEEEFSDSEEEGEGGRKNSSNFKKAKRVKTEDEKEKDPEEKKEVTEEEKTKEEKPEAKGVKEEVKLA

[6] = biological target: T1, Bromodomain-containing protein 3; assay: Binding affinity to human BRD3 domain 2 assessed as dissociation constant by isothermal titration calorimetry assay
[7] = biological target: T3, Bromodomain-containing protein 7 (Homo sapiens, UniProt Q9NPI1); assay: Binding affinity to human BRD7 assessed as dissociation constant by isothermal titration calorimetry assay
T3 sequence (Q9NPI1 whole entry): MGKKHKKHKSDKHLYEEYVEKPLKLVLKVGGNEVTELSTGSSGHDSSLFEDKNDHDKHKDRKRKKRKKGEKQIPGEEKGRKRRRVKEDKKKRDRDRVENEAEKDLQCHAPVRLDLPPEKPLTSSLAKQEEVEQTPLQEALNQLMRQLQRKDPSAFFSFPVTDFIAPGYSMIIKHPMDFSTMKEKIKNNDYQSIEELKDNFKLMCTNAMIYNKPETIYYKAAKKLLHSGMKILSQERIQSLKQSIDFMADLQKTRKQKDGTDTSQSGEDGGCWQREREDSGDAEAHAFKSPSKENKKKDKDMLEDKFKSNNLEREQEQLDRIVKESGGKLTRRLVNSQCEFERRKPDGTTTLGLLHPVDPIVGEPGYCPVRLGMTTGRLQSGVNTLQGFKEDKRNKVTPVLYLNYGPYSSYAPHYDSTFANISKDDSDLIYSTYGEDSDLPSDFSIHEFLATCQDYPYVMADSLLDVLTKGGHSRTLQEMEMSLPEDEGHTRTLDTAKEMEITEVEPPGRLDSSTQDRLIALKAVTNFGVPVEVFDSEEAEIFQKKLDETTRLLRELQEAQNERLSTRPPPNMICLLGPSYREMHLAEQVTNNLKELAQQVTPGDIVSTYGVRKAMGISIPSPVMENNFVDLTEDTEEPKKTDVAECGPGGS

Histone deacetylase 2 = Histone deacetylase 2 (Homo sapiens, UniProt Q92769); assay: Inhibition of human HDAC2 assessed as target activity using fluorogenic substrate ZMAL for 90 min by microplate reader at 355nm
Histone deacetylase 2, sequence (Q92769 whole entry): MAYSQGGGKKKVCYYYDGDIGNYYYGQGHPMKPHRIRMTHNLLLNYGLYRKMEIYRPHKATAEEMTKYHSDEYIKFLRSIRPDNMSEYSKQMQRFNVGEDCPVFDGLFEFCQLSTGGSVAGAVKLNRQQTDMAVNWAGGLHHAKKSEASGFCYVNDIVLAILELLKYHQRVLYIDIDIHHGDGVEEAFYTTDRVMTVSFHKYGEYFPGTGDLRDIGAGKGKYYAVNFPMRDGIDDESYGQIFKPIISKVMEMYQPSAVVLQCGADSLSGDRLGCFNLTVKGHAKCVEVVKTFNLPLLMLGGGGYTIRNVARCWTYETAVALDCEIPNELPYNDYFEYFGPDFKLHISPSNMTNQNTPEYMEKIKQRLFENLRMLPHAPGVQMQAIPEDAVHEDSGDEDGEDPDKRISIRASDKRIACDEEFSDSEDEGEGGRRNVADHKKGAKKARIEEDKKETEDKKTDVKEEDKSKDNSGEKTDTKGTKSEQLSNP

HPBALL [8] = assay: Anticancer activity against human HPBALL cells assessed as cell growth inhibition by CellTiter-Glo luminescent assay; type: functional, cell-based
HL-60 [9] = assay: Anticancer activity against human HL-60 cells assessed as cell growth inhibition by CellTiter-Glo luminescent assay; type: functional, cell-based
K562 = assay: Anticancer activity against human K562 cells assessed as cell growth inhibition by CellTiter-Glo luminescent assay; type: functional, cell-based
[10] = biological target: T4, Histone deacetylase (Homo sapiens) (UniProt Q13547+O15379+Q9UBN7+Q92769+Q9UQL6+Q8WUI4+Q9BY41+Q96DB2+P56524+Q9UKV0+Q969S8); assay: Inhibition of HDAC in human K562 cells assessed as decrease in MYC expression measured after 24 to 72 hrs by Western blot analysis; type: cell-based; settings: time 24-72 hrs
HPBALL [11] = assay: Induction of apoptosis in human HPBALL cells assessed as accumulation at sub-G1 phase at 5 uM after 72 hrs by flow cytometry; type: functional, cell-based
[12] = biological target: T4, Histone deacetylase (Homo sapiens); assay: Inhibition of HDAC in human K562 cells assessed as increase in acetylated alpha-tubulin measured after 48 hrs by Western blot analysis; type: cell-based
[13] = biological target: T4, Histone deacetylase (Homo sapiens); assay: Inhibition of HDAC in human K562 cells assessed as increase in acetylated histone H3 measured after 48 hrs by Western blot analysis; type: cell-based

CCc1c(C(=O)Nc2cc(/C=C/C(=O)NO)ccc2OC)[nH]c(C)c1C(C)=O
Kd [1]: 5.65 µM
Kd [2]: 3.3 µM
Kd [3]: 7.4 µM
viability at 5 µM (HL-60 [4]): 22.1%
viability at 5 µM (TALL-1): 15.1%
viability at 5 µM (MOLT-4): 3.5%
Kd [5]: 2.98 µM
IC50 (Histone deacetylase 1): 0.179 µM
Kd [6]: 7.55 µM
Kd [7]: 8.5 µM
IC50 (Histone deacetylase 2): 0.359 µM
IC50 (HPBALL [8]): 6.79 µM
IC50 (HL-60 [9]): 7.82 µM
IC50 (K562): 3.4 µM
Activity [10]: Active
Activity (HPBALL [11]): Active
Activity [12]: Active
Activity [13]: Active

COc1ccc(S(=O)(=O)n2ccc(/C=C/C(=O)NO)c2)cc1NC(=O)c1[nH]c(C)c2c1CCCCC2=O
Kd [1]: 1.5 µM
Kd [2]: 3.1 µM
Kd [3]: 0.23 µM
viability at 5 µM (HL-60 [4]): 42.3%
viability at 5 µM (TALL-1): 10.6%
viability at 5 µM (MOLT-4): 4%
Kd [5]: 0.79 µM
IC50 (Histone deacetylase 1): 0.093 µM
Kd [6]: 3.75 µM
Kd [7]: 0.23 µM
IC50 (Histone deacetylase 2): 0.208 µM
IC50 (HPBALL [8]): 6.31 µM
IC50 (HL-60 [9]): 4.63 µM
IC50 (K562): 2.9 µM
inhibition [10]: Active
Activity (HPBALL [11]): Active
Activity [12]: Active
Activity [13]: Active

Cc1[nH]c(C(=O)Nc2cc(S(=O)(=O)N3CCOCC3)ccc2OCCCCCCCC(=O)NO)c2c1C(=O)CCCC2
Kd [1]: 0.037 µM
Kd [2]: 0.067 µM
Kd [3]: 0.027 µM
viability at 5 µM (HL-60 [4]): 35.9%
viability at 5 µM (TALL-1): 50%
viability at 5 µM (MOLT-4): 1.7%
Kd [5]: 0.076 µM
IC50 (Histone deacetylase 1): 0.163 µM
Kd [6]: 0.1 µM
Kd [7]: 0.125 µM
IC50 (Histone deacetylase 2): 0.534 µM
IC50 (HPBALL [8]): 7.13 µM
IC50 (HL-60 [9]): 2.75 µM
IC50 (K562): 5.99 µM
inhibition [10]: Active
Activity (HPBALL [11]): Active
Activity [12]: Active
Activity [13]: Active
